# Reference: ChEMBL document CHEMBL4602617, “Discovery and optimization of heteroaryl piperazines as potent and selective PI3Kδ inhibitors” (Bioorg Med Chem Lett, 2020)
# Assays:
# [1] = Clearance in dog plasma at 0.5 mg/kg, iv or 1 mg/kg, po; type: ADME, organism-based, Canis lupus familiaris
# [2] = target: 5-hydroxytryptamine receptor 2C (Homo sapiens) (UniProt P28335); test: Displacement of [3H]mesulergine from human recombinant 5HT2C receptor expressed in CHOK1 cells at 10 uM incubated for 60 mins by radiometric scintillation assay relative to control; type: cell-based; conditions: CHO-K1
# [3] = target: Calcium/calmodulin-dependent protein kinase type II subunit delta (Homo sapiens, UniProt Q13557); test: Inhibition of recombinant full length human His-tagged CAMK2D expressed in baculovirus expression system using serine/threonine-04 peptide as substrate incubated for 60 mins in presence of ATP by Z'-LYTE assay
# AMPK alpha2/beta1/gamma1 = AMPK alpha2/beta1/gamma1 (Homo sapiens, UniProt P54619+P54646+Q9Y478); test: Inhibition of recombinant full length GST/His-tagged human AMPK alpha2/beta1/gamma1 expressed in baculovirus expression system using Ser/Thr-23 peptide as substrate incubated for 60 mins in presence of ATP by Z'-LYTE assay
# [4] = target: Tyrosine-protein kinase ABL1 (Homo sapiens, UniProt P00519, E255K); test: Inhibition of recombinant full length human His-tagged ABL1 E255K mutant cytoplasmic domain expressed in baculovirus expression system using tyrosine-2 peptide as substrate incubated for 60 mins in presence of ATP by Z'-LYTE assay
# [5] = target: G protein-coupled receptor kinase 4 (Homo sapiens, UniProt P32298); test: Inhibition of recombinant full length human GST-tagged GRK4 expressed in baculovirus expression system using serine/threonine-16 peptide as substrate incubated for 60 mins in presence of ATP by Z'-LYTE assay
# Mesocricetus auratus = species: Mesocricetus auratus; test: Displacement of [3H]glyburide from KATP receptor in HIT-T15 Syrian hamster pancreatic B cell membranes at 10 uM after 120 mins by radiometric scintillation analysis relative to control
# [6] = target: Neuropeptide Y receptor type 2 (Homo sapiens) (UniProt P49146); test: Displacement of [[125I]peptide YY from full length human KAN-TS cell membrane derived Y2 neuropeptide receptor at 10 uM measured after 120 mins by radiometric scintillation analysis relative to control
# [7] = target: Glutamate NMDA receptor (Rattus norvegicus) (UniProt P35439+Q00959+Q00960+Q00961+Q62645+Q8VHN2+Q9R1M7); test: Displacement of [3H]CGP-39653 from glutamate NMDA receptor in Wistar rat cerebral cortical membranes at 10 uM incubated for 20 mins by radiometric scintillation analysis relative to control
# [8] = target: Estrogen receptor (Homo sapiens) (UniProt P03372); test: Displacement of [3H]estradiol from recombinant full length human recombinant ERalpha receptor expressed in Sf9 insect cells at 10 uMmeasured after 120 mins by radiometric scintillation analysis relative to control; conditions: 10 uM
# Estrogen receptor (Homo sapiens), sequence (P03372 whole entry): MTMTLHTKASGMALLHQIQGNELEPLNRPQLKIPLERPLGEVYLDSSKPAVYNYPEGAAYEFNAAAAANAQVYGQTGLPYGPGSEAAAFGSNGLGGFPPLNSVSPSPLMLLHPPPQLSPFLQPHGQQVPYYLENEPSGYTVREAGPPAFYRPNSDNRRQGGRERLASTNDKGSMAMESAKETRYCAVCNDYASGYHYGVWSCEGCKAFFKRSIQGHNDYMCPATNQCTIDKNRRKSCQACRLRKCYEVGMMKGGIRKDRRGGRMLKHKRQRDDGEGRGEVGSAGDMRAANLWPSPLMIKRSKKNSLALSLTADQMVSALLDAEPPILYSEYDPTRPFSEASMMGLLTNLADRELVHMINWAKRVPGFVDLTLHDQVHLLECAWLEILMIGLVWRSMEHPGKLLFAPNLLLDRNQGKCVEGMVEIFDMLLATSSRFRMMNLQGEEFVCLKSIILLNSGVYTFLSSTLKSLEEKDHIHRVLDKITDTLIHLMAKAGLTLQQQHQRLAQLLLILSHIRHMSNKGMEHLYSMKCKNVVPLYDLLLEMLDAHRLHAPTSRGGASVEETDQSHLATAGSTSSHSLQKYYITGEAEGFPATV
# [9] = target: C-X-C chemokine receptor type 2 (Homo sapiens) (UniProt P25025); test: Displacement of [125I]IL-8 from recombinant full length human CXCR2 receptor expressed in CHOK1 cells at 10 uM measured after 60 mins by radiometric scintillation analysis relative to control; type: cell-based; conditions: CHO-K1
# [10] = target: Cathepsin G (Homo sapiens) (UniProt P08311); test: Inhibition of endogenous human cathepsin G at 10 uM using Suc-Ala-Ala-Pro-Phe-AMC as substrate after 30 mins by spectrophotometric analysis relative to control
# Cathepsin G (Homo sapiens), sequence (P08311 whole entry): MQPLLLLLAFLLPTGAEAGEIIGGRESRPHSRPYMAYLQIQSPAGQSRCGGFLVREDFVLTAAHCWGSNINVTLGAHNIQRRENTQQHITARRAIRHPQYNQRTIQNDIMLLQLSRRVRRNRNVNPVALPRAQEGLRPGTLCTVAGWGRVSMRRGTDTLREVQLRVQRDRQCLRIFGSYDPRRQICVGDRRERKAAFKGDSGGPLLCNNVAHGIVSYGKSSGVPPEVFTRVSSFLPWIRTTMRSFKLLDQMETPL
# [11] = target: Epidermal growth factor receptor (Homo sapiens, UniProt P00533, L858R/T790M); test: Inhibition of human recombinant GST-tagged EGFR L858R/T790M mutant expressed in baculovirus expression system using tyrosine 4 peptide as substrate after 60 mins in presence of ATP FRET based Z'-LYTE assay
# Ephrin type-A receptor 4 = Ephrin type-A receptor 4 (Homo sapiens, UniProt P54764); test: Inhibition of recombinant human GST-tagged EPHA4 cytoplasmic domain expressed in baculovirus expression system using tyrosine-02 peptide as substrate incubated for 60 mins in presence of ATP by Z'-Lyte assay
# Ephrin type-A receptor 4, sequence (P54764 whole entry, the tested form may be a part): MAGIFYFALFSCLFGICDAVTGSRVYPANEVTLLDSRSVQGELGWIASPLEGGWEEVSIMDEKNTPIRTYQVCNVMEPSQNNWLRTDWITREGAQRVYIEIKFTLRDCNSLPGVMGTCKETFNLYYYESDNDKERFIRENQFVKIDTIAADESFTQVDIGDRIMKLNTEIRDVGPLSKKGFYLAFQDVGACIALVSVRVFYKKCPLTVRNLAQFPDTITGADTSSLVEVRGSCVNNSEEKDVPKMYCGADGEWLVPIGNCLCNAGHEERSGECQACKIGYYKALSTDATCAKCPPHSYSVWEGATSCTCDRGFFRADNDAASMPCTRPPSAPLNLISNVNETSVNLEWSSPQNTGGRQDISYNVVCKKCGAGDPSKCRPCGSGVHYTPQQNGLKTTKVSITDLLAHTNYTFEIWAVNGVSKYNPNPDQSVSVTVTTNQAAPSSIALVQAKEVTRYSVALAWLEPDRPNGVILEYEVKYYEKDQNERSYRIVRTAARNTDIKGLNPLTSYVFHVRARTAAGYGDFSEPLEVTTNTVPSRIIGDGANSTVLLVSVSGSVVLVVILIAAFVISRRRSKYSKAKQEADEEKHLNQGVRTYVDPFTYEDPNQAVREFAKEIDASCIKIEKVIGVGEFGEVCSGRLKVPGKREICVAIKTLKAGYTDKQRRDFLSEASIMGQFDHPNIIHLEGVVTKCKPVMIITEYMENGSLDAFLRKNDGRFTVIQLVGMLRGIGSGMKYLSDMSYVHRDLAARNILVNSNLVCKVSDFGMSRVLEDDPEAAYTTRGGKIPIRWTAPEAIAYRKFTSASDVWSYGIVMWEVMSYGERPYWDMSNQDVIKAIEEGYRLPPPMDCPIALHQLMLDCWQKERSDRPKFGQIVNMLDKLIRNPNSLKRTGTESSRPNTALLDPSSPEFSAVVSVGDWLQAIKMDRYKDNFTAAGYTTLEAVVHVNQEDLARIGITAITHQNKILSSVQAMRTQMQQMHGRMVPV
# [12] = target: Receptor-type tyrosine-protein kinase FLT3 (Homo sapiens, UniProt P36888, D835Y); test: Inhibition of recombinant human His-tagged FLT3 D835Y mutant cytoplasmic domain expressed in baculovirus expression system after 1 using tyrosine 2 as substrate after 1 hr in presence of ATP by ZYLTE assay
# [13] = target: Vascular endothelial growth factor receptor 3 (Homo sapiens, UniProt P35916); test: Inhibition of recombinant human GST-tagged FLT4 cytoplasmic domain expressed in baculovirus expression system after 1 using tyrosine 4 as substrate after 1 hr in presence of ATP by ZYLTE assay
# Vascular endothelial growth factor receptor 3, sequence (P35916 whole entry, the tested form may be a part): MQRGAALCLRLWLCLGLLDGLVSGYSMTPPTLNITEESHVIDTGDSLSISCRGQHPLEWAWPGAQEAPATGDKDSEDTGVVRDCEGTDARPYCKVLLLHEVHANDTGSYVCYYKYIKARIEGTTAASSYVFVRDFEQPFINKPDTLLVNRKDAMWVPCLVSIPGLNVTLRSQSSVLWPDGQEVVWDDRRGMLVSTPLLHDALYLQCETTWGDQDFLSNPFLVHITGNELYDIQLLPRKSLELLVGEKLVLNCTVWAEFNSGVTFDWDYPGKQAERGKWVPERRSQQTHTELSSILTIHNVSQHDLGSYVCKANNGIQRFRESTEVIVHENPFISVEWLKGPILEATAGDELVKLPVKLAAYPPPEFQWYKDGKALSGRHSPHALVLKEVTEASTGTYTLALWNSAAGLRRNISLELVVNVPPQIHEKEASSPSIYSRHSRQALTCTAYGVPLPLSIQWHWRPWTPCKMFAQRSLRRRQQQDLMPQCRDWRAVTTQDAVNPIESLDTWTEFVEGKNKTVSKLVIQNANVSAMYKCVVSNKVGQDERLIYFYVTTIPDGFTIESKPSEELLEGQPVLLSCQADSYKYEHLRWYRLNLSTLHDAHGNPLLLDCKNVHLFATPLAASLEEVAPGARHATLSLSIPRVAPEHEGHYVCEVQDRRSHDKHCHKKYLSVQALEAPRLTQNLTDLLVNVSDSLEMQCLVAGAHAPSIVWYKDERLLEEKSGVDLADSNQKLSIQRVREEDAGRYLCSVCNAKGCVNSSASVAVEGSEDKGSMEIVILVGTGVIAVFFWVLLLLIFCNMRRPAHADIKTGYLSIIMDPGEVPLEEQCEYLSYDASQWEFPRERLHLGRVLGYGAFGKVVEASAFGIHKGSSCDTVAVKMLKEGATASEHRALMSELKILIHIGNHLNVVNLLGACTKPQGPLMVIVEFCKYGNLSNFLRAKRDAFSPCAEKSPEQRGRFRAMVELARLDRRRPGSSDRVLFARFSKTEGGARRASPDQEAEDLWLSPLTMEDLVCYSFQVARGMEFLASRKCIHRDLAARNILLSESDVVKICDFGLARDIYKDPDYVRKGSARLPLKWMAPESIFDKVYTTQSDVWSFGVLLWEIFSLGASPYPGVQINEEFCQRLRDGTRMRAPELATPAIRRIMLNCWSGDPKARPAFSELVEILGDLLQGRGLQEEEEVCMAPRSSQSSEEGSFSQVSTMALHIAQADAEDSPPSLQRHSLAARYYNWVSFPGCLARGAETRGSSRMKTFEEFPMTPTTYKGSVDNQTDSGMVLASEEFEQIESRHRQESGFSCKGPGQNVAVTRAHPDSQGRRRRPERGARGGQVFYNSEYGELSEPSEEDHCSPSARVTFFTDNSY
# Rhodopsin kinase GRK7 = Rhodopsin kinase GRK7 (Homo sapiens, UniProt Q8WTQ7); test: Inhibition of recombinant full length human GST-tagged GRK7 expressed in baculovirus expression system using serine/threonine-16 peptide as substrate incubated for 60 mins in presence of ATP by Z'-LYTE assay
# [14] = target: Tyrosine-protein kinase JAK2 (Homo sapiens, UniProt O60674, V617F); test: Inhibition of human recombinant GST tagged JAK2 V617F mutant catalytic domain expressed in baculovirus expression system using Tyr6 peptide as substrate measured after 1 hr in presence of ATP by Z'-LYTE assay
# [15] = target: Mitogen-activated protein kinase 9 (Homo sapiens, UniProt P45984); test: Inhibition of recombinant full length human His-tagged JNK2 expressed in baculovirus expression system using serine/threonine-4 peptide as substrate incubated for 60 mins in presence of ATP by Z'-LYTE assay
# [16] = target: Serine/threonine-protein kinase pim-2 (Homo sapiens, UniProt Q9P1W9); test: Inhibition of recombinant full length GST-tagged human PIM2 expressed in baculovirus expression system using Ser/Thr 07 as substrate after 1 hr in presence of ATP by Z'-LYTE assay
# Serine/threonine-protein kinase pim-2, sequence (Q9P1W9 whole entry, the tested form may be a part): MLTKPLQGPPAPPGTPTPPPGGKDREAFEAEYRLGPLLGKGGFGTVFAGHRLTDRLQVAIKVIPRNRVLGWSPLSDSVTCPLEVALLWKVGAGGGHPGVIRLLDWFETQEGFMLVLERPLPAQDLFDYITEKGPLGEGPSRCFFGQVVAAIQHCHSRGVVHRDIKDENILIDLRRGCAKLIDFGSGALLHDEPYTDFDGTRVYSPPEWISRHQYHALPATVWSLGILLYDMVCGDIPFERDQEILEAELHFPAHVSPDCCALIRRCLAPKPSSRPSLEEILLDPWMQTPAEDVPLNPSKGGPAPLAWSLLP
# [17] = target: Proto-oncogene tyrosine-protein kinase receptor Ret (Homo sapiens, UniProt P07949, V804L); test: Inhibition of recombinant human GST-tagged RET V804L mutant cytoplasmic domain expressed in baculovirus expression system using tyr02 peptide as substrate incubated for 60 mins in presence of ATP by Z'-LYTE assay
# Proto-oncogene tyrosine-protein kinase receptor Ret, sequence (P07949 29-1114 V804L limits assumed): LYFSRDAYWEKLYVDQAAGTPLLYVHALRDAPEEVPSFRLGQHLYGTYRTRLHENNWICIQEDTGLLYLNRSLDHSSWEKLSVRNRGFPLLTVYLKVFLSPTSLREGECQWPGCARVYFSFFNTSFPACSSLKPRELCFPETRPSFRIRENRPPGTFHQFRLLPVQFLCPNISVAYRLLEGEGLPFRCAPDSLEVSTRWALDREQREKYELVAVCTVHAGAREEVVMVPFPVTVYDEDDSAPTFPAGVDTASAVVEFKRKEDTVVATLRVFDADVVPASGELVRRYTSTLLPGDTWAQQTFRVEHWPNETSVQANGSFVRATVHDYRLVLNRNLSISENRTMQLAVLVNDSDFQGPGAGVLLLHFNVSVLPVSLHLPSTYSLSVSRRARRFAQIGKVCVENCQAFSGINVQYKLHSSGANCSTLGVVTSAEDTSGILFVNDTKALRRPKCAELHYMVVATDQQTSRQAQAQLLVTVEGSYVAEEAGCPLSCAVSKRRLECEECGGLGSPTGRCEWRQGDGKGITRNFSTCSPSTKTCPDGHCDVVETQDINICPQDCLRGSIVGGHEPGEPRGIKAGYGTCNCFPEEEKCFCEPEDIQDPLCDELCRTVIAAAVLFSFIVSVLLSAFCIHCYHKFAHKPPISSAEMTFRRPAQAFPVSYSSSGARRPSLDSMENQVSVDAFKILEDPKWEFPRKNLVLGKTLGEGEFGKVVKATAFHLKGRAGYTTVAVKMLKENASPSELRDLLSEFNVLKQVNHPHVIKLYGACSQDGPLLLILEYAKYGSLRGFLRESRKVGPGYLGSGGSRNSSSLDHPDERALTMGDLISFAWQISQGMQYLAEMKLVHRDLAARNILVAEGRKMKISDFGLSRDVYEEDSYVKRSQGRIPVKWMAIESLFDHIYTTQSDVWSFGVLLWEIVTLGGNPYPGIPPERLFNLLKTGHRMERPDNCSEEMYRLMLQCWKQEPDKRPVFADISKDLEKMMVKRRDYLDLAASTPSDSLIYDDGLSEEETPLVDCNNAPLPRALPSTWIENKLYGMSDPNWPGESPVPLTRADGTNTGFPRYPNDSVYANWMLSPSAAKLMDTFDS
# [18] = target: Serine/threonine-protein kinase Sgk1 (Homo sapiens, UniProt O00141); test: Inhibition of recombinant human GST-tagged SGK1 catalytic domain (60 to 431 residues) expressed in baculovirus expression system using serine/threonine-6 peptide as substrate incubated for 60 mins in presence of ATP by Z'-LYTE assay
# SRSF protein kinase 1 = SRSF protein kinase 1 (Homo sapiens, UniProt Q96SB4); test: Inhibition of recombinant full length human His-tagged SRPK1 expressed in baculovirus expression system using serine/threonine-18 peptide as substrate incubated for 60 mins in presence of ATP by Z'-LYTE assay
# SRSF protein kinase 3 = SRSF protein kinase 3 (Homo sapiens, UniProt Q9UPE1); test: Inhibition of recombinant full length human GST-tagged MSSK1 expressed in baculovirus expression system using serine/threonine-18 peptide as substrate incubated for 60 mins in presence of ATP by Z'-LYTE assay
# [19] = target: Serine/threonine-protein kinase 24 (Homo sapiens, UniProt Q9Y6E0); test: Inhibition of recombinant full length human GST-tagged MST3 expressed in baculovirus expression system using serine/threonine-7 peptide as substrate incubated for 60 mins in presence of ATP by Z'-LYTE assay
# Serine/threonine-protein kinase 24, sequence (Q9Y6E0 whole entry): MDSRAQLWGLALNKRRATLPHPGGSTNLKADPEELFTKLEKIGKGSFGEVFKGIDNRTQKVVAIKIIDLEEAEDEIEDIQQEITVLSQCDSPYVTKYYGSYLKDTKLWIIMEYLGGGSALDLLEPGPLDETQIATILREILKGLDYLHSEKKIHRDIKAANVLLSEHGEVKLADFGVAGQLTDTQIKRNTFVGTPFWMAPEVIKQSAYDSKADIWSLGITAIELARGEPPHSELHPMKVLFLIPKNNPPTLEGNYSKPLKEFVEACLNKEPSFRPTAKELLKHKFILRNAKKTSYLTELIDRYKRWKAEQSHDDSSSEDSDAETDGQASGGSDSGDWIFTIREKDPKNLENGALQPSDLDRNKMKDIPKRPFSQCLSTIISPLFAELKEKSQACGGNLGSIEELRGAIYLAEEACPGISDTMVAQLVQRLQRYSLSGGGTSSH
smiles,measurement,setting,value
C[C@@H]1C[C@H]1C(=O)N1CCN(c2cnc(C#N)c(-c3cnn(C)c3)n2)C[C@H]1C,clearance,[1],8 mL/min/kg
same,inhibition,[2],13%
same,IC50,[3],> 100 µM
same,IC50,AMPK alpha2/beta1/gamma1,> 100 µM
same,IC50,[4],> 100 µM
same,IC50,[5],34.7 µM
same,inhibition,Mesocricetus auratus,-1%
same,inhibition,[6],-2%
same,inhibition,[7],-1%
same,inhibition,[8],0%
same,inhibition,[9],5%
same,inhibition,[10],6%
same,IC50,[11],> 100 µM
same,IC50,Ephrin type-A receptor 4,> 100 µM
same,IC50,[12],> 100 µM
same,IC50,[13],> 100 µM
same,IC50,Rhodopsin kinase GRK7,> 100 µM
same,IC50,[14],> 100 µM
same,IC50,[15],> 100 µM
same,IC50,[16],> 100 µM
same,IC50,[17],> 100 µM
same,IC50,[18],> 100 µM
same,IC50,SRSF protein kinase 1,> 100 µM
same,IC50,SRSF protein kinase 3,> 100 µM
same,IC50,[19],> 100 µM
